According to patent EP0624315B1, “Diaryl(pyridinio and isoquinolinio) boron fungicidal agents” (AMERICAN CYANAMID COMPANY, priority 1993, dated 1994):

Legend:
[1] = tested on: Diabrotica undecimpunctata howardi, 3rd instar southern corn rootworm; experiment: Insecticide evaluation, southern corn rootworm soil test; type: in vivo; parameters: key: 0 = no effect; 1 = 10-25% kill; 2 = 26-35% kill; 3 = 36-45% kill; 4 = 46-55% kill; 5 = 56-65% kill; 6 = 66-75% kill; 7 = 76-85% kill; 8 = 86-99% kill; 9 = 100% kill; - = No evaluation; details: 50 kg/ha (1.25 mg active ingredient per jar), 6 days
Protocol: (§1) The following tests show the efficacy of the compounds as insecticides and acaricides. The evaluations are conducted with solutions of test compounds dissolved or dispersed in 50/50 acetone/water mixtures. The test compound is technical material dissolved or dispersed in said acetone/water mixtures in sufficient amounts to provide the concentrations set forth in Table I below. All concentrations reported herein are in terms of active ingredient. All tests are conducted in a laboratory maintained at about 27 °C. The rating system employed is as follows:
One cc of fine talc is placed in a 30 mL wide-mouth screw-top glass jar. One mL of the appropriate acetone test solution is pipetted onto the talc so as to provide 1.25 mg of active ingredient per jar. The jars are set under a gentle air flow until the acetone is evaporated. The dried talc is loosened, 1 cc of millet seed is added to serve as food for the insects and 25 mL of moist soil is added to each jar. The jars are capped and the contents thoroughly mixed on a Vortex Mixer. Following this, ten 3rd instar rootworms are added to each jar and the jars are loosely capped to allow air exchange for the larvae. The treatments are held for 6 days before mortality counts are made. Missing larvae are presumed dead, since they decompose rapidly and can not be found. The concentration used in this test corresponds to approximately 50 kg/ha.

Venturia inaequalis = experiment: In vivo fungicidal evaluation, Apple Scab; details: 200 ppm, host plants sprayed, dried, then inoculated; also: ranges in brackets are in %
[2] = tested on: Puccinia recondita f. sp. tritici; experiment: In vivo fungicidal evaluation, Wheat Leaf Rust; details: 200 ppm, host plants sprayed, dried, then inoculated; also: ranges in brackets are in %
[3] = tested on: Tetranychus urticae (OP-resistant strain), 2-spotted spider mite; experiment: Acaricide evaluation, 2-spotted spider mite plant dip; type: in vivo; details: 300 ppm, 2 days, adult kill
Protocol: as §1
Sieva lima bean plants with primary leaves expaned to 7 to 8 cm are selected and cut back to one plant per pot. A small piece is cut from a leaf taken from the main colony and placed on each leaf of the test plants. This is done about 2 hours before treatment to allow the mites to move over to the test plant and to lay eggs. The size of the cut piece is varied to obtain about 100 mites per leaf. At the time of the treatment, the piece of leaf used to transfer the mites is removed and discarded. The mite-infested plants are dipped in the test formulation for 3 seconds with agitation and set in the hood to dry. Plants are kept for 2 days before estimates of adult kill are made.

Botrytis cinerea = experiment: In vivo fungicidal evaluation, Pepper Botrytis; details: 200 ppm, host plants sprayed, dried, then inoculated; also: ranges in brackets are in %
Cercospora beticola = experiment: In vivo fungicidal evaluation, Sugar Beet Cercospora; details: 200 ppm, host plants sprayed, dried, then inoculated; also: ranges in brackets are in %
Alternaria solani = experiment: In vivo fungicidal evaluation, Tomato Early Blight; details: 200 ppm, host plants sprayed, dried, then inoculated; also: ranges in brackets are in %
[4] = tested on: Pseudocercosporella herpotrichoides (Psdche); experiment: In vitro fungicidal evaluation, mycelial growth inhibition in nutrient broth; type: cell-based; details: 25 ppm, 3-4 days at 21°C, rated visually; also: ranges in brackets are in %
Protocol: (§2) Test compounds are dissolved or suspended in acetone and dispersed into cell well plates containing a suspension of ground fungal mycelia in a nutrient broth. Assay plates are incubated for 3-4 days at 21°C. Growth inhibition is measured visually and is rated using the following scale:
(§3) Untreated controls, solvent blanks and reference standards are included in each test.
(§4) Assay fungi include the plant pathogens, Pythium ultimum (Pythul); Rhizoctonia solani (Rhizso); Fusarium oxysporum f. sp. cucumerinum (Fusoxc); and Pseudocercosporella herpotrichoides (Psdche).
(§5) When more than one test is run, the data are averaged. The compouds evaluated are reported by compound number given in Example 5.

[5] = tested on: Fusarium oxysporum f. sp. cucumerinum (Fusoxc); experiment: as above; type: cell-based; details: 25 ppm, 3-4 days at 21°C, rated visually; also: ranges in brackets are in %
Protocol: as §2, §3, §4, §5

[6] = tested on: Rhizoctonia solani (Rhizso); experiment: as above; type: cell-based; details: 25 ppm, 3-4 days at 21°C, rated visually; also: ranges in brackets are in %
Protocol: as §2, §3, §4, §5

Pythium ultimum (Pythul) = experiment: as above; type: cell-based; details: 25 ppm, 3-4 days at 21°C, rated visually; also: ranges in brackets are in %
Protocol: as §2, §3, §4, §5

[7] = tested on: Spodoptera eridania 3rd instar larvae, southern army-worm; experiment: Insecticide evaluation, southern armyworm leaf dip; type: in vivo; details: 5 days
Protocol: as §1
A sieva lima bean leaf expanded to 7 to 8 cm in length is dipped in the test suspension with agitation for 3 seconds and placed in a hood to dry. The leaf is then placed in a 100x10 mm petri dish containing a damp filter paper on the bottom and 10 3rd instar caterpillars. The dish is maintained for 5 days before observations are made of mortality, reduced feeding or any interference with normal moulting.

Plasmopara viticola = experiment: In vivo fungicidal evaluation, Grape Downy Mildew; details: 200 ppm, host plants sprayed, dried, then inoculated; also: ranges in brackets are in %
[8] = tested on: Erysiphe graminis f. sp. tritici; experiment: In vivo fungicidal evaluation, Wheat Powdery Mildew; details: 200 ppm, host plants sprayed, dried, then inoculated; also: ranges in brackets are in %
Pyricularia oryzae = type: in vivo; details: 200 ppm, host plants sprayed, dried, then inoculated
[9] = tested on: Heliothis virenscens, 3rd instar tobacco budworm; experiment: Insecticide evaluation, tobacco budworm cotton cotyledon dip; type: in vivo; details: 300 ppm, 3 days
Protocol: as §1
Cotton cotyledons are dipped in the test formulation and allowed to dry in a hood. When dry, each is cut into quarters and ten sections placed individually in 30 mL plastic medicine cups containing a 5 to 7 mm long piece of damp dental wick. One 3rd instar caterpillar is added to each cup and a cardboard lid placed on the cup. Treatments are maintained for 3 days before mortality counts and estimates of reduction in feeding damage are made.

Row | Substance | Southern Corn Rootworm kill rating [1] | AS (Apple Scab) disease control rating (Venturia inaequalis) | WLR (Wheat Leaf Rust) disease control rating [2] | OP. Res. Mites kill rating [3] | PB (Pepper Botrytis) disease control rating (Botrytis cinerea) | SBC (Sugar Beet Cercospora) disease control rating (Cercospora beticola) | TEB (Tomato Early Blight) disease control rating (Alternaria solani) | PSDCHE growth inhibition rating [4] | FUSOXC growth inhibition rating [5] | RHIZSO growth inhibition rating [6] | PHTHUL growth inhibition rating (Pythium ultimum (Pythul)) | Southern Armyworm kill rating ([7]; 1000 ppm) | GDM (Grape Downy Mildew) disease control rating (Plasmopara viticola) | WPM (Wheat Powdery Mildew) disease control rating [8] | RB (Rice Blast) disease control rating (Pyricularia oryzae) | Southern Armyworm kill rating ([7]; 300 ppm) | Tobacco Budworm Larvae kill rating [9]
1 | (4-Bromoisoquinolinio)bis(p-fluorophenyl)methylboron [Compound 14] | 5 (5 = 56-65% kill) | 8 (96 - 99) | 0 (0) | 9 (9 = 100% kill) | 9 (100) | 7 (90 - 95) | 0 (0) | 9 (100) | 9 (100) | 9 (100) | 9 (100) | 9 (9 = 100% kill) | 7 (90 - 95) | 0 (0) | 8 (96 - 99) |  | 
2 | (4-Isopropylpyridinio)methyldiphenylboron [Compound 1] | 0 | 9 (100) | 8 (96 - 99) | 8 (8 = 86-99% kill) | 7 (90 - 95) | 0 (0) | 7 (90 - 95) | 9 (100) | 9 (100) | 9 (100) | 7 (90 - 99) |  | 9 (100) | 8 (96 - 99) | 7 (90 - 95) | 8 (8 = 86-99% kill) | 8 (8 = 86-99% kill)
3 | (Isoquinolinio)methyldiphenylboron [Compound 6] | 9 (9 = 100% kill) | 9 (100) | 9 (100) | 8 (8 = 86-99% kill) | 0 (0) | 0 (0) | 0 (0) | 9 (100) | 9 (100) | 7 (90 - 99) | 9 (100) |  | 9 (100) | 8 (96 - 99) | 6 (75 - 89) | 9 (9 = 100% kill) | 8 (8 = 86-99% kill)
4 | Methyl(3-methylpyridinio)diphenylboron [Compound 2] | 9 (9 = 100% kill) | 9 (100) | 8 (96 - 99) | 9 (9 = 100% kill) | 0 (0) | 0 (0) | 0 (0) | 9 (100) | 9 (100) | 9 (100) | 9 (100) | 9 (9 = 100% kill) | 9 (100) | 8 (96 - 99) | 7 (90 - 95) |  | 
